Here are results for one substance from patent US9127079B2, “Inhibitors of phosphatase and tensin homolog (PTEN) conjugates” (THE UNIVERSITY OF BRITISH COLUMBIA, priority 2009, dated 2015).

One experiment deals with transplanted iPS-NPCs. The experiment can be described thus: Survival of iPS-NPCs transplanted intracerebrally after focal cerebral ischemia in the rat (TUNEL). It is filed as in vivo. From the text:
iPS-MEF-Ng-20D-17 from Kyoto University, and Cell Bank of RIKEN BioResource Center of Japan (Okita K. et al. Nature (2007) 448(7151):313-17) was induced into iPS-NPCs using a multistage differentiation protocol with some modifications (Kumagai G. et al. PLoS ONE (2009) 4(11):e7706). In brief, the human iPS cells expanding on irradiated MEF feeder cells were passaged, and then transferred to nonadherent culture dishes where they readily formed spheroid embryoid bodies (EBs). Clusters of neuroepithelial-like cells could be isolated and propagated from EBs in the medium of DMEM-F12, N2 supplement (1%; Invitrogen), and 20 ng/mL FGF-2 (R&D Systems™, Germany).
Prior to transplantation, the iPS-NPSs were labeled using 1 μg/mL bis-benzimide (Hoechst™ 33342; Sigma™) for 1 hours at 37° C. as previously described (Shyu W C. et al. J Clin Invest (2008) 118(1):133-148). Labeled cells were then collected and washed in PBS three times. iPS-NPCs were counted using a cytometer to ensure an adequate cell number for transplantation. One week after brain ischemia, adult male Sprague-Dawley rats (weight >300 g) were anesthetized with chloral hydrate (0.4 g/kg, ip) and injected stereotaxically with approximately 1×10^6 cells in a 3-5 μL PBS suspension through a 26-gauge Hamilton syringe into 3 cortical areas adjacent to the right MCA, 3.0 to 5.0 mm below the dura. […]

A further experiment relates to PTEN. The experiment can be described thus: Immunostaining of endogenous PTEN: nuclear translocation in cultured neurons with NMDA. The following applies: peptide 10 uM, NMDA stimulation. Type of experiment: cell-based, rat. Here is the method:
Dissociated cultures of rat cortical or hippocampal neurons were prepared from 18-d-old Sprague Dawley rat embryos as described previously (Mielke and Wang 2005). To obtain mixed cultures enriched with neurons, uridine (10 μM) and 5-Fluor-T-deoxyuridine (10 μM) were added to the culture medium at 3 d in vitro (DIV) and maintained for 48 h to inhibit non-neuronal cell proliferation before the cultures were returned to the normal culture medium. Mature neurons (12-14 DIV) were used for experiments.
In order to induce excitotoxicity, 12-14 DIV cultured neurons were washed and transferred to Mg2+-free extracellular solution (ECS) containing the following (in mM): 25 HEPES acid, 140 NaCl, 33 glucose, 5.4 KCl, and 1.3 CaCl2, with pH 7.35 and osmolarity 320-330 mOsm. ECS and subjected to NMDA-induced excitotoxicity (20 μM NMDA, 10 μM glycine, 60 min at room temperature) or any other experimental conditions as indicated in the texts. Cells were then washed twice with normal ECS, and returned to the original growth conditions until additional assay.

A short description of experiment [1]: Cortical glucose metabolism by FDG-PET after cerebral ischemia. Particulars: one week after treatment. Type of experiment: in vivo, rat. Here is the method:
Adult male Sprague-Dawley rats (weight 200 g) were used in this study. All surgical procedures were performed using sterile/aseptic techniques in accordance with Institutional guidelines. Rats were anesthetized with chloral hydrate (0.4 g/kg IP) and subjected to cerebral ischemia. Ligation of the right middle cerebral artery (MCA) and bilateral common carotids arteries (CCAs) was performed by methods described previously (Shyu et al. 2005). The CCAs were clamped with non-traumatic arterial clips. The right MCA was ligated with a 10-0 nylone suture. After 90 min of ischemia, the suture on the MCA and the arterial clips on the CCAs were removed to allow reperfusion. Core body temperature was monitored with a thermistor probe (Hewlett-Packard™ Model 21090A probe, Hewlett-Packard Company™, Andover, Mass.), and maintained at 37° C. with a heating pad during anesthesia. After recovery from anesthesia, rat body temperature was maintained at 37° C. with a heat lamp. Experimental rats were subdivided into five groups receiving different types of interference peptides, all fused to a TAT protein transduction domain (PTEN-K13 (SEQ ID NO: 2) 2 hrs or 6 hrs, PTEN-K13R (SEQ ID NO: 3), PTEN-K289 (SEQ ID NO: 4), and vehicle control) via femoral vein with dosage of 8.4 mg/kg at 2 or 6 hours after MCA ligation for three consecutive days. […]

Regarding “KEIVSRNKRRYQED-YGRKKRRQRRR (KEIVSRNKRRYQEDYGRKKRRQRRR; PTEN K13 interference peptide conjugated to TAT protein transduction domain) [Peptide-K13]”, in the experiment with transplanted iPS-NPCs (7 days after transplantation, vs saline-treated rats, n=6), the “TUNEL positive transplanted iPS-NPCs” value is on record as “significantly fewer”. Besides, in the experiment with transplanted iPS-NPCs (intravenous 8.4 mg/kg once a day for 7 days following transplantation, ischemic rat), the “survival rate of transplanted iPS-NPCs” value was “significantly increased”. For the same substance, in the experiment on PTEN, the “PTEN nuclear translocation (endogenous PTEN immunostaining)” value is given as “prevented PTEN nuclear translocation”. The “FDG uptake over the right cortex (microPET)” value in experiment [1] (i.v. 8.4 mg/kg given 2 hours after ischemia onset) and in experiment [1] (i.v. 8.4 mg/kg given 6 hours after ischemia onset) was “striking increase” each time.
